The values below come from patent publication US20250295659A1, “METHODS FOR TREATING TRAUMATIC BRAIN INJURY” (The Regents of the University of California, priority 2021, published 2025).

The structures appear in SMILES notation. “Also recorded” adds a separate entry of the source.

For data set [1] the following is noted: doses for FDA-approved treatments (cancer patients); cited from earlier work.
Data set [2] concerns TBI (moderate lateral fluid percussion) in adult male Sprague-Dawley rats. Put plainly: Morris Water Maze after moderate lateral fluid percussion TBI. It counts as in vivo, rat. Particulars: LFP-TBI, 2 mg/kg i.p. single dose immediately after TBI, days 12 through 16 after TBI, vs TBI/vehicle, P<0.05.
Description: Moderate Lateral fluid percussion (LFP) was used to produce TBI in adult male Sprague-Dawley rats (weighing 300-350 grams). […] All of the following data were obtained using moderate LFP in adult rats. […] Sham and vehicle control animals received 5% DMSO in 0.9% saline. Morris Water Maze (MWM). Spatial memory was assessed using the MWM on days 12 through 16 after TBI. […] In brief rats were released from one of four starting points and allowed 120 s to find the escape platform. Rats received a total of 4 trials per day, one from each starting point, over 5 consecutive days. Behavioral assessments were performed by an individual blinded to the treatment groups. Mean latency to find the platform was calculated for each day to assess learning as well as the mean swimming speed to assess motor function. Statistical differences were determined using repeated measures ANOVA followed by Dunnett's post hoc test.
The test system of the next data set is CCI-TBI in rats. Put plainly: Elevated body swing test after CCI-TBI. It counts as in vivo, rat. Particulars: 2 mg/kg i.p. single dose at 0 or 3 hrs post-TBI, 24 hrs after TBI, vs TBI/vehicle, P<0.05.
The subject of data set [3] is CCI-TBI in rats, ipsilateral hippocampal CA2-3 neurons. The data set is described as follows: NeuN-positive hippocampal CA2-3 neuron counts after CCI-TBI. It counts as in vivo, rat. The note with it: 2 mg/kg single dose at 0, 3 or 6 hrs post-TBI, 24 hrs after TBI, vs TBI/vehicle, P<0.05 or P<0.01. Here is the method: Brain sample preparation and immunohistochemistry. Anesthetized rats were perfused with saline followed by 4% PFA at day 1 or day 16. Brain sections (50 μm) are cut at −20° C. and incubated in 0.3% H2O2 for 10 minutes to quench endogenous peroxidase, incubated with 3% horse blocking serum for 20 minutes, and then incubated overnight in primary antibody (mouse anti-NeuN, mature neuron marker, 1:150, Millipore), then in biotinylated secondary antibody (Goat anti-mouse 1:1,000, Vector) for 0.5 h, then placed in Vectastain ABC reagent for 0.5 hr and incubated in peroxidase substrate 3, 3′-diaminobenzidine (DAB) solution for 10 min.
Stereological cell counts. The total number of NeuN-positive neurons in CA2-3 of hippocampus were quantified bilaterally using stereological methods. The NeuN-positive cell counts were performed on a microscope (Nikon E600, Nikon) using commercial software (Stereo Investigator™8.0, Microbrightfield, Inc.). Serial sections cut at 50 μm thick were collected at Bregma −2.80 mm to Bregma −4.16 mm for a total of 10 sections per brain. […] Statistical differences are determined using ANOVA followed by Dunnett's post hoc test.
Methods: One day after controlled cortical impact (CCI)-TBI, rats were anesthetized and transcardially perfused with PBS followed by 4% PFA. […] The NeuN^+ cells in ipsilateral hippocampal CA2-3 were quantified (n=4-8).

In the next data set the target is c-Kit (Homo sapiens, UniProt P10721). Particulars: target kinase c-Kit; cell-free; read-out: IC50 (nm) in vitro; cited from earlier work.
Sequence of c-Kit (P10721 26-976): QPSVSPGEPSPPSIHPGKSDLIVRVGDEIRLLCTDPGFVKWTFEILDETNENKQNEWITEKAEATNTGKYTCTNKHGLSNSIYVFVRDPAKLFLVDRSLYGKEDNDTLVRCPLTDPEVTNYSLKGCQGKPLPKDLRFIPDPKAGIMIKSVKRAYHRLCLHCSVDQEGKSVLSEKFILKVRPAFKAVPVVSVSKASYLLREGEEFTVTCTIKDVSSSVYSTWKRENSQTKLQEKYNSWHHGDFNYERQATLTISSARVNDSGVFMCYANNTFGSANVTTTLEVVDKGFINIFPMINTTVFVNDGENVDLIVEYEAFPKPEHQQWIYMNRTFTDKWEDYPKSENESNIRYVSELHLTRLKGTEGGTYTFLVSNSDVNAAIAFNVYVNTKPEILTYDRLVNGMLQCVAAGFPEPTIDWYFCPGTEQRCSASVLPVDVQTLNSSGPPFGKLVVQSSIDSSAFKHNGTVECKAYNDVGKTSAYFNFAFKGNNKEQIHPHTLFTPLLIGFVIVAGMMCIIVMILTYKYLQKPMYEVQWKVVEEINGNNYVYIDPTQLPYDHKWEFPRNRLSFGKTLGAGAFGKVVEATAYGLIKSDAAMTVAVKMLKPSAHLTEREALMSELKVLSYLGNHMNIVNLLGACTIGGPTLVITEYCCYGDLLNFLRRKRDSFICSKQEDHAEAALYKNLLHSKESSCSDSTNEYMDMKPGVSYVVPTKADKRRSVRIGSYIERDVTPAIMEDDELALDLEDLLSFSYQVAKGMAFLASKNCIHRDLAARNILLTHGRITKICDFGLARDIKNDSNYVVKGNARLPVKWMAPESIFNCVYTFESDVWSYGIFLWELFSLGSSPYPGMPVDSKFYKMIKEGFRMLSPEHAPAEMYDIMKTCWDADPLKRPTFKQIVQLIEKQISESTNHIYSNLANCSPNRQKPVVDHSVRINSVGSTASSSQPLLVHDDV

One may read the IC50 as the concentration needed to halve the response being measured.

Take `Cn1cc(-c2cc3c(N4CCN(c5ncc([C@@](C)(N)c6ccc(F)cc6)cn5)CC4)ncnn3c2)cn1` [Avapritinib]: in data set [1], the “Common Side effects when used at the doses for FDA-approved treatments” value (shortened to “Common Side effects when used”) was “Edema, Nausea, Fatigue, General weakness, Acute confusion, Vomiting, Anorexia,; also recorded: Diarrhea, Hair discoloration, Eye tearing, Acute abdominal pain, Constipation, Skin; also recorded: rash, Dizziness, Anemia, Leukopenia”.
Take `COc1cc(Nc2c(C#N)cnc3cc(OCCCN4CCN(C)CC4)c(OC)cc23)c(Cl)cc1Cl` [Bosutinib]: in data set [1], the “Common Side effects when used” value is given as “Diarrhea, Nausea, Thrombocytopeniasorder, Vomiting, Kidney disease with; also recorded: reduction in GFR, Skin rash, Anemia, Fever, Fatigue, Neutropenic disorder,; also recorded: Abnormal hepatic function tests, Upper respiratory infection, Lower respiratory; also recorded: infection, General weakness, Anorexia, Pharyngitis, Back pain, Headache disorder,; also recorded: Dizziness, Dyspnea”.
For `Cc1nc(Nc2ncc(C(=O)Nc3c(C)cccc3Cl)s2)cc(N2CCN(CCO)CC2)n1` [Dasatinib], in data set [2], the “latency to find the platform in the Morris Water Maze (spatial memory)” value is reported as “significantly improved performance; also recorded: reduces spatial memory deficits”. In the data set with CCI-TBI in rats, the “motor imbalance (biased swinging) in elevated body swing test” value is recorded as “significantly mitigated motor imbalance; also recorded: mitigates motor imbalance”. Also, in data set [3], the “survival of NeuN+ CA2-3 neurons in ipsilateral hippocampus” value is “significantly promotes survival of CA2-3 neurons; also recorded: decreases CA2-3 neuronal loss”. For the same compound, the “Common Side effects when used” value in data set [1] is on record as “Fever, Fatigue, Malaise; also recorded: Infection, Hypophosphatemia, Hypocalcemia, Body fluid retention, Anemia,; also recorded: Thrombocytopenia disorder, Neutropenic disorder, Peripheral neuropathy,; also recorded: Hemorrhage, Upper respiratory infection, Pleural effusions, Stomatitis,; also recorded: Constipation, Gastrointestinal hemorrhage, Pruritus of skin, Arthralgia, Dizziness,”.
Turning to `COc1cc2nccc(Oc3ccc(NC(=O)NC4CC4)c(Cl)c3)c2cc1C(N)=O` [Lenvatinib], the IC50 at c-Kit is 100 nM.
For the compound `Cc1cn(-c2cc(NC(=O)c3ccc(C)c(Nc4nccc(-c5cccnc5)n4)c3)cc(C(F)(F)F)c2)cn1` [Nilotinib], the “Common Side effects when used” value in data set [1] is on record as “Hypocalcemia, Hyponatremia, Back pain, Hyperkalemia, Hypokalemia,; also recorded: Pancytopenia, Anemia, Thrombocytopenia disorder, Leukopenia, Neutropenic; also recorded: disorder, Elevated serum lipase, Hypertension, Prolonged QT interval, Pharyngitis,; also recorded: Constipation, Muscle spasm, Pruritus of skin, Arthralgia, Myalgia, Vertigo”.
Regarding `Cc1ccc(Nc2nccc(N(C)c3ccc4c(C)n(C)nc4c3)n2)cc1S(N)(=O)=O` [Pazopanib], the “Common Side effects when used” value in data set [1] is given as “Nausea, Vomiting, Diarrhea, Thrombocytopenia disorder, Leukopenia, Neutropenic; also recorded: disorder, Alopecia, Hypertension, Fatigue, Hemorrhage, General weakness, Skin; also recorded: rash, Proteinuria, Anorexia, Weight loss, Headache disorder, Hair bleaching, Pain,; also recorded: Myalgia, Thrombotic disorder”.
`FC(F)(F)c1ccc(CNc2ccc(Cc3c[nH]c4ncc(Cl)cc34)cn2)cn1` [Pexidartinib]: the “Common Side effects when used” value in data set [1] is “Blurred vision, decreased appetite, dizziness, fever, headache, itching or skin rash,; also recorded: fast heartbeat, swelling of the feet or lower legs”.
For the compound `Cc1ccc(C(=O)Nc2ccc(CN3CCN(C)CC3)c(C(F)(F)F)c2)cc1C#Cc1cnc2cccnn12` [Ponatinib], the “Common Side effects when used” value in data set [1] was “Thromboembolic disorder, Arterial thrombosis, Hypertension, Thrombocytopenic; also recorded: disorder, Neutropenic disorder, Anemia, Skin rash, Leukopenia, Acute abdominal; also recorded: pain, Fatigue, Headache disorder, Dry skin, Constipation, Arthralgia, Nausea,; also recorded: Fever, Lymphopenia, Bone marrow depression, Diarrhea, Vomiting”.
Consider `CNC(=O)c1cc(Oc2ccc(NC(=O)Nc3ccc(Cl)c(C(F)(F)F)c3)c(F)c2)ccn1` [Regorafenib], for which the “Common Side effects when used” value in data set [1] is given as “Hypertension, Impaired wound healing, General weakness, Fatigue, Anorexia,; also recorded: Palmar-plantar erythrodysesthesia, Diarrhea, Stomatitis, Weight loss, Infection,; also recorded: Voice change, Hemorrhage, Fever, Skin rash, Headache disorder,; also recorded: Hypophosphatemia, Pain, Nausea, Acute abdominal pain, Anemia”.
Take `CCn1c(=O)c(-c2cc(NC(=O)Nc3ccccc3)c(F)cc2Br)cc2cnc(NC)cc21` [Ripretinib]: in data set [1], the “Common Side effects when used” value was “Alopecia, Fatigue, Nausea, Acute abdominal pain, Constipation, Myalgia, Diarrhea,; also recorded: Anorexia, Palmar-plantar erythrodysesthesia, Vomiting, Elevated serum lipase,; also recorded: Hypophosphatemia”.
As to `CNC(=O)c1cc(Oc2ccc(NC(=O)Nc3ccc(Cl)c(C(F)(F)F)c3)cc2)ccn1` [Sorafenib], the “Common Side effects when used” value in data set [1] was “Hypophosphatemia, Anemia, Thrombocytopenia disorder, Leukopenia,; also recorded: Neutropenic disorder, Lymphopenia, Depression, Peripheral neuropathy,; also recorded: Hypertension, Hemorrhage, Stomatitis, Dyspepsia, Constipation, Gastrointestinal; also recorded: hemorrhage, Erectile dysfunction, Eczema, Exfoliative dermatitis, Erythema,; also recorded: Pruritus of skin, Alopecia”.
As to `CCN(CC)CCNC(=O)c1c(C)[nH]c(/C=C2\C(=O)Nc3ccc(F)cc32)c1C` [Sunitinib], the “Common Side effects when used” value in data set [1] is on record as “Increased risk of bleeding, Pain in extremities, Peripheral edema, Back pain,; also recorded: Hypertension, Chronic heart failure; also recorded: Stomatitis, Dyspepsia, Constipation, Dry skin, Dyschromia, Arthralgia, Headache; also recorded: disorder, Dizziness, Fever, Fatigue, General weakness, Dysgeusia, Skin rash,; also recorded: Anorexia”.
